Reference: ChEMBL document CHEMBL1149690, “Membrane permeable esterase-activated fluorescent imaging probe” (Bioorg Med Chem Lett, 2007)

Tests used:
[1] = Photostability after 30 mins assessed by fluorescence intensity; assay type: ADME; conditions: 0.5 h
[2] = Chemical stability assessed as hydrolysis at pH 3 to 9 after 1.5 hrs; assay type: physicochemical; conditions: buffer, pH 3, 1.5 h
[3] = Chemical stability assessed as hydrolysis at pH below 1; assay type: physicochemical
[4] = Chemical stability assessed as hydrolysis at pH more than 10; assay type: physicochemical

Fluorescence intensity [1] | Activity [2] | Activity [3] | Activity [4] | Structure (SMILES)
< 15% | – | – | – | CCCN1/C(=C/C=C2\CCC/C(=C\C=C3\N(CCC)c4ccccc4C3(C)C)C2=O)C(C)(C)c2ccccc21
– | Not Active | Active | Active | CCCN1/C(=C/C=C2\CCCC(/C=C/C3=[N+](CCC)c4ccccc4C3(C)C)=C2OC(C)=O)C(C)(C)c2ccccc21.[I-]
